As usually defined, the pIC50 is the negative decadic logarithm of the IC50, by convention in mol/L. A word on the inhibition: it is the percentage by which the read-out fell short of the control. High values mean strong suppression, low ones little suppression.

These results are taken from PMC5605198, “MELK is not necessary for the proliferation of basal-like breast cancer cells” (eLife, 2017).

Structures are written as SMILES. pIC50: −log10 of the molar value. Where two headings read alike, the source gives them in different places.

Experiment [1] deals with CDK7 (Homo sapiens, UniProt P50613). The experiment can be described thus: Adapta kinase assay. As to conditions: Adapta assay at [ATP]=apparent Km; read-out: Biochemical IC50 CDK7.
CDK7, sequence (P50613 whole entry): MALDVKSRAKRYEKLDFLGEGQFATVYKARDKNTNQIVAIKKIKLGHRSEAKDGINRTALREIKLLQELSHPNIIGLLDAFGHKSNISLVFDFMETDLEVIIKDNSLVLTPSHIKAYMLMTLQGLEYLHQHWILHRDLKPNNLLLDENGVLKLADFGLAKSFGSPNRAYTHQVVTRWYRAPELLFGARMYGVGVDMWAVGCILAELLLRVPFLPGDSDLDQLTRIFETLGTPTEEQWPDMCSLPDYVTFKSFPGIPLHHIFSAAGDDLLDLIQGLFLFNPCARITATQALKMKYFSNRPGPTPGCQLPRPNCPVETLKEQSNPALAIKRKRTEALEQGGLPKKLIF
CDK7, sequence (P51946 whole entry partner): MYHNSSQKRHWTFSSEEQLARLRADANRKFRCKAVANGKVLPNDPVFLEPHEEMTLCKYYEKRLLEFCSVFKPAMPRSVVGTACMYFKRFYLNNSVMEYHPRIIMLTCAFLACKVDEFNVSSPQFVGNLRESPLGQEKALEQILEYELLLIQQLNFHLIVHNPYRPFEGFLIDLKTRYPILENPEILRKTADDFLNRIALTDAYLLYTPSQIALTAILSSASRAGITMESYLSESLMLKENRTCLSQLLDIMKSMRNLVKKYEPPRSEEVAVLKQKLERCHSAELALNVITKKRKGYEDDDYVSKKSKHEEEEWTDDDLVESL
CDK7, sequence (P51948 whole entry partner): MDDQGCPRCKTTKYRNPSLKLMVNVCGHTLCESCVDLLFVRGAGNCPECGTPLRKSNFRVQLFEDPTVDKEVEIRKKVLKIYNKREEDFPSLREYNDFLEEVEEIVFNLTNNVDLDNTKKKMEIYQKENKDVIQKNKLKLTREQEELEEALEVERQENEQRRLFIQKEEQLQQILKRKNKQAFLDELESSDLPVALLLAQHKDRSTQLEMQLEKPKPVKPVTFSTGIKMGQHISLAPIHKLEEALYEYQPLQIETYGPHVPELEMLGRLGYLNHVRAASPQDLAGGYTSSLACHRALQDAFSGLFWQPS
For experiment [2], the target named is T1, MELK (Homo sapiens, UniProt Q14680). The experiment can be described thus: KINOMEscan MELK pull-down. It counts as binding. The protocol:
Based on biochemical (KINOMEscan) and cellular (KiNativ) kinase profiling of our in-house library of structurally diverse ATP-competitive kinase inhibitors, we identified several chemotypes that were prioritized for further characterization and development. In particular, we focused on JW-7-25-1 (Figure 1A), a benzonaphthyridinone derivative that inhibited MELK pull-down by 100% (KINOMEscan) at 10 μM.

Experiment [3] deals with GSK3A (Homo sapiens, UniProt P49840). The experiment can be described thus: Z’-LYTE enzymatic assay. As to conditions: Z’-LYTE assay at [ATP]=apparent Km; read-out: Biochemical IC50 GSK3A.
GSK3A, sequence (P49840 whole entry): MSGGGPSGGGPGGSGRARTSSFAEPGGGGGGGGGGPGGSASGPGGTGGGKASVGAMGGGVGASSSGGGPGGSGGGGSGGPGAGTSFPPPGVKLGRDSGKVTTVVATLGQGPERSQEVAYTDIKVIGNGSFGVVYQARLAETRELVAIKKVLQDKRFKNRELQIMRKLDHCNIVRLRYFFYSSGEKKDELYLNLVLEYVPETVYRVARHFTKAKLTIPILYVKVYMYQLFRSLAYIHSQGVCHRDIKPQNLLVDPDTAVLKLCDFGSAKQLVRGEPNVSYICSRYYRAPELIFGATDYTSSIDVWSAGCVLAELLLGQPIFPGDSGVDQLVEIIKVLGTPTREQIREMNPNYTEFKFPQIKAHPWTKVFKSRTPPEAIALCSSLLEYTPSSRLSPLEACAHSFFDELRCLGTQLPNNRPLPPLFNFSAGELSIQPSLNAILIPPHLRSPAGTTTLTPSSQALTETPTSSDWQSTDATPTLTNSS
The target in experiment [4] is T1, MELK. The experiment can be described thus: Z’-LYTE enzymatic assay. It counts as biochemical.
The target of experiment [5] is mTOR (Homo sapiens, UniProt P42345). The experiment can be described thus: Z’-LYTE enzymatic assay. The following applies: Z’-LYTE assay at [ATP]=apparent Km; read-out: Biochemical IC50 mTOR.
Experiment [6] relates to Flt3. Also noted: method as in Johnson et al., 2015. As to conditions: ref Johnson et al., 2015; cited from earlier work.
Experiment [7] concerns ZR-75-1. The experiment can be described thus: Cell proliferation assay (CellTiter-Glo). The following applies: Homo sapiens, ZR-75-1, 72 h, read-out: 3-day antiproliferative IC50. On the technique in general: In ATP-based viability assays light output follows the ATP content of the culture.
In experiment [8] the test system is MDA-MB-468. The experiment can be described thus: Cell proliferation assay (CellTiter-Glo). The following applies: Homo sapiens.
In experiment [9] the target is T1, MELK. The experiment can be described thus: Inhibitor-induced MELK degradation, immunoblot. As to conditions: MDA-MB-468 cells; pretreatment carfilzomib (400 nM) or MLN4924 (1 μM) 4 hours, then MELK inhibitor 4 hours. (In general: A western blot detects proteins with antibodies after separation by electrophoresis.)
In experiment [10] the test system is HCC70. The experiment can be described thus: Cell proliferation assay (CellTiter-Glo). As to conditions: Homo sapiens.
Experiment [11] concerns MCF7. The experiment can be described thus: Cell proliferation assay (CellTiter-Glo). The following applies: Homo sapiens.
Experiment [12] concerns T-47D. The experiment can be described thus: Cell proliferation assay (CellTiter-Glo). The following applies: Homo sapiens, T47D.
Experiment [13] has as its system BT-549. The experiment can be described thus: Cell proliferation assay (CellTiter-Glo). The following applies: Homo sapiens.
Experiment [14] deals with MDA-MB-468 (second source). The experiment can be described thus: Cell proliferation assay (CellTiter-Glo). The following applies: Homo sapiens, MDA-MB-468, 168 h, read-out: 7-day antiproliferative IC50.
In experiment [15] the test system is FKBP12^F36V-MELK(sg3R). The experiment can be described thus: dTAG-induced degradation, immunoblot. It counts as cell-based. As to conditions: MELK−/− MDA-MB-468-FKBP12^F36V-MELK(sg3R) cells; for duration of sustained degradation of FKBP12^F36V-MELK(sg3R): 500 nM. The protocol:
(§1) Four dTAG molecules (7, 13, 36 and 47) that vary in linker length and chemical structure were tested for their efficiency at depleting FKBP12^F36V-MELK(sg3R) (Figure 4A, Figure 4—figure supplement 3).
Figure 4. […] (A) Chemical structure of heterobifunctional dTAG molecule dTAG-47. See also Figure 4—figure supplement 3 for the chemical structures of dTAG-7, dTAG-13 and dTAG-36. (B) Immunoblots for MELK and GAPDH after treatment of dTAG-7, 13, 36, and 47 at indicated concentrations in MELK−/− MDA-MB-468-FKBP12^F36V-MELK(sg3R) cells for 4 hours. See Figure 4—figure supplement 1 for details of the generation of MELK−/− MDA-MB-468-FKBP12^F36V-MELK(sg3R) clones. (C) Same as in 4B, but with treatment at 500 nM and extended treatment times for 14, 24, 48, and 72 hours. (D) Changes in abundance of 7270 proteins (peptide count ≥2) comparing MELK−/− MDA-MB-468-FKBP12^F36V-MELK cells treated with dTAG-7 (250 nM) or DMSO for 1 hour, versus p-value (dTAG-7: triplicate, DMSO: duplicate, limma moderated t-test). See also Figure 4—source datas 1 and 2 for the original and the processed data. (E) Crystal violet staining image showing parental MDA-MB-468 cells and MELK−/− MDA-MB-468-FKBP12^F36V-MELK(sg3R) cells after treatment with DMSO or 500 nM of dTAG-47 for 9 days. Immunoblots showing MELK and GAPDH from a duplicate plate on Day 9 confirmed sustained depletion of FKBP12^F36V-MELK(sg3R). These are representative data from one of two independent experiments. Figure 4—source data 1. Raw integrated ion intensities from quantitative multiplexed proteomics. Figure 4—source data 2. Processed Data and Statistical Analysis by limma (topTable). Figure 4—figure supplement 1. Single clones selected from MDA-MB-468-FKBP12^F36V-MELK(sg3R) cells subject to CRISPR/Cas9-mediated knockout of endogenous MELK. Immunoblots for MELK and GAPDH in single cell clones selected from MDA-MB-468-FKBP12^F36V-MELK(sg3R) transfected with Cas9/sgMELK-3 to knockout endogenous MELK. Clone 1D4 is clone 1 and clone 1A3 is clone 2 in Figure 4. Clone 1D4 was confirmed with heterozygous −1 and +1 indels; clone 1A3 was confirmed with homozygous −1 deletions. [drawing 5] Figure 4—figure supplement 2. […] (A) Immunoblots for MELK, cyclin B1 and GAPDH in asynchronous versus M-phase arrested MDA-MB-468 cells and MDA-MB-468-FKBP12^F36V-MELK(sg3R) cells (clone 1). […] Chemical structures of dTAG molecules. FKBP12^F36V-binding ligands conjugated by variable linkers to thalidomide or pomalidomide, including (A) dTAG-7, (B) dTAG-13 and (C) dTAG-36 are capable of inducing degradation of FKBP12^F36V-tagged proteins of interest. [drawing 7]

The test system of experiment [16] is MELK−/− MDA-MB-468-FKBP12^F36V-MELK(sg3R) cells. The experiment can be described thus: 9-day proliferation assay, crystal violet staining. It counts as cell-based. The following applies: 500 nM, 9 days, two clones. As for the experimental part: as §1
Figure 4. […] (A) Chemical structure of heterobifunctional dTAG molecule dTAG-47. See also Figure 4—figure supplement 3 for the chemical structures of dTAG-7, dTAG-13 and dTAG-36. (B) Immunoblots for MELK and GAPDH after treatment of dTAG-7, 13, 36, and 47 at indicated concentrations in MELK−/− MDA-MB-468-FKBP12^F36V-MELK(sg3R) cells for 4 hours. See Figure 4—figure supplement 1 for details of the generation of MELK−/− MDA-MB-468-FKBP12^F36V-MELK(sg3R) clones. (C) Same as in 4B, but with treatment at 500 nM and extended treatment times for 14, 24, 48, and 72 hours. (D) Changes in abundance of 7270 proteins (peptide count ≥2) comparing MELK−/− MDA-MB-468-FKBP12^F36V-MELK cells treated with dTAG-7 (250 nM) or DMSO for 1 hour, versus p-value (dTAG-7: triplicate, DMSO: duplicate, limma moderated t-test). See also Figure 4—source datas 1 and 2 for the original and the processed data. (E) Crystal violet staining image showing parental MDA-MB-468 cells and MELK−/− MDA-MB-468-FKBP12^F36V-MELK(sg3R) cells after treatment with DMSO or 500 nM of dTAG-47 for 9 days. […] Raw integrated ion intensities from quantitative multiplexed proteomics. […]

[17] abbreviates: MDA-MB-468, 72 h, read-out: 3-day antiproliferative IC50.
The mark [18] stands for this setting: HCC70, 72 h, read-out: 3-day antiproliferative IC50.
[19] abbreviates: HCC70, 168 h, read-out: 7-day antiproliferative IC50.
Where [20] appears, read: MDA-MB-468, 168 h, read-out: 7-day antiproliferative IC50.
Setting [21] is: MCF7, 72 h, read-out: 3-day antiproliferative IC50.
The mark [22] stands for this setting: 72 h, read-out: 3-day antiproliferative IC50.
Where [23] appears, read: 168 h, read-out: 7-day antiproliferative IC50.
Where [24] appears, read: BT-549, 72 h, read-out: 3-day antiproliferative IC50.
Where [25] appears, read: BT-549, 168 h, read-out: 7-day antiproliferative IC50.

T1 sequence (Q14680 whole entry): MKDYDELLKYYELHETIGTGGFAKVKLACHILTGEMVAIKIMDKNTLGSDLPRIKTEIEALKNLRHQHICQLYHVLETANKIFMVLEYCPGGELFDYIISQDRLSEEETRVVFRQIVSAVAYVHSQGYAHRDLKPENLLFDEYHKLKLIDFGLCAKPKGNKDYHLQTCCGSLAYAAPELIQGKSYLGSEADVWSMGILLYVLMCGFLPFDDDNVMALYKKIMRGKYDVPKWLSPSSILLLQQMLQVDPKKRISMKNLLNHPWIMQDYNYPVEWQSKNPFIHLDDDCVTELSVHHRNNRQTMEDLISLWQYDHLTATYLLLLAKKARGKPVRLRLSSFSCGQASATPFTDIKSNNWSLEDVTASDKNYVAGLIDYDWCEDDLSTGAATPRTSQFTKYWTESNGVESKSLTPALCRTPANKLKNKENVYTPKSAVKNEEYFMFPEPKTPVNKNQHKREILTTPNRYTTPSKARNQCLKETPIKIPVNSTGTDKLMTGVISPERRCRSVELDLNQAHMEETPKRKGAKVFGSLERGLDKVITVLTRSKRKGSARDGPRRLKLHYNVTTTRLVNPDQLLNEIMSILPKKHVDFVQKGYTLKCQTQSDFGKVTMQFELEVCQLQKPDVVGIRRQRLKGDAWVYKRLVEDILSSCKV

On to `O=c1ccc2cnc3ccc(-c4ccc(O)cc4)cc3c2n1-c1ccc(N2CCNCC2)c(C(F)(F)F)c1` [JW-7-25-1], for which the pIC50 was 7.20 in [1]; 7.91 in [3]; 8.30 in experiment [4] (Z’-LYTE assay at [ATP]=apparent Km, read-out: Biochemical IC50 MELK); 8.26 in experiment [5]. Also, 10 µM produced 100% inhibition in experiment [2].

Turning to `COc1cc(-c2cn[nH]c2)ccc1C(=O)Nc1ccc2c(c1)CCNCC2` [MELK-T1], the pIC50 was 7.74 in experiment [6], under 5.00 in [7] and under 5.00 in experiment [8] (setting [17]).

For `NS(=O)(=O)OC[C@@H]1C[C@@H](n2ccc3c(N[C@H]4CCc5ccccc54)ncnc32)C[C@@H]1O` [MLN4924], the “rescue of inhibitor-induced MELK degradation by pretreatment” value in experiment [9] is recorded as “minimal effect”.

On to `CC1(C)C(=O)N([C@H]2CCc3c(O)cccc32)c2nc(Nc3cccc(CN4CCCC4)c3)ncc21` [MRT199665], for which the pIC50 is 5.32 in experiment [7]; 6.41 in experiment [10] (setting [18]); 7.12 in [10] (setting [19]); 6.24 in experiment [8] (setting [17]); 6.80 in [8] (setting [20]); 6.36 in [11] (setting [21]). Moreover, the pIC50 is 5.23 in experiment [12] (setting [22]); 6.21 in experiment [12] (setting [23]); 6.40 in experiment [13] (setting [24]); 6.51 in [13] (setting [25]); 6.04 in experiment [14].

On to `CN1CCN(c2ccc(-n3cc(-c4ccncc4OCC4CCNCC4)cn3)cc2)CC1` [NVS-MELK8a], for which the pIC50 in experiment [7] was under 5.00; in experiment [4] (Biochemical IC50 MELK, Z’-LYTE assay at [ATP]=apparent Km) it was 7.92; in [4] (Note: MELK IC50, note column of Table 3), 7.92; in [4] (Potency (MELK), measured by Z’LYTE biochemical assay, class symbols in Figure 2C) it was over 7.70; in experiment [10] (setting [18]), 5.22; in [10] (setting [19]), 5.38. Further, the pIC50 in experiment [8] (setting [17]) was 5.27; in experiment [8] (setting [20]), 5.53; in [11] (setting [21]) it was 5.22; in [11] (MCF7, 168 h, read-out: 7-day antiproliferative IC50) it was 5.55; in experiment [12] (setting [22]), under 5.00; in experiment [12] (setting [23]), 5.31. Moreover, the pIC50 was 5.09 in experiment [13] (setting [24]), 5.30 in experiment [13] (setting [25]) and 5.08 in experiment [14].

On to `CC(C)C[C@H](NC(=O)[C@H](CCc1ccccc1)NC(=O)CN1CCOCC1)C(=O)N[C@@H](Cc1ccccc1)C(=O)N[C@@H](CC(C)C)C(=O)[C@@]1(C)CO1` [carfilzomib], for which, in experiment [9], the “rescue of inhibitor-induced MELK degradation by pretreatment” value was “prevented degradation”.

For `CCC(C(=O)N1CCCCC1C(=O)OC(CCc1ccc(OC)c(OC)c1)c1ccccc1OCC(=O)NCCCCCCOc1cccc2c1C(=O)N(C1CCC(=O)NC1=O)C2=O)c1cc(OC)c(OC)c(OC)c1` (stereo not shown) [dTAG-13], in experiment [15], the “duration of sustained degradation of FKBP12^F36V-MELK(sg3R)” value (“duration” below) is given as “up to 72 hours” and the “time to efficient depletion of FKBP12^F36V-MELK(sg3R)” value (from here on “time to efficient depletion”) was at most 4 h.

In the case of `CC[C@H](C(=O)N1CCCC[C@H]1C(=O)O[C@H](CCc1ccc(OC)c(OC)c1)c1ccccc1OCC(=O)NCCCCCCCCNc1cccc2c1C(=O)N(C1CCC(=O)NC1=O)C2=O)c1cc(OC)c(OC)c(OC)c1` (stereo partly drawn) [dTAG-36, (2S)-(1R)−3-(3,4-dimethoxyphenyl)−1-(2-(2-((8-((2-(2,6-dioxopiperidin-3-yl)−1,3-dioxoisoindolin-4-yl)amino)octyl)amino)−2-oxoethoxy)phenyl)propyl 1-((S)−2-(3,4,5-trimethoxyphenyl)butanoyl)piperidine-2-carboxylate], in experiment [15], the “duration” value is given as “up to 72 hours” and the “time to efficient depletion” value is at most 4 h.

`CC[C@H](C(=O)N1CCCC[C@H]1C(=O)O[C@H](CCc1ccc(OC)c(OC)c1)c1ccccc1OCC(=O)NCCCCCCCCNc1ccc2c(c1)C(=O)N(C1CCC(=O)NC1=O)C2=O)c1cc(OC)c(OC)c(OC)c1` (stereo partly drawn) [dTAG-47, (2S)-(1R)−3-(3,4-dimethoxyphenyl)−1-(2-(2-((8-((2-(2,6-dioxopiperidin-3-yl)−1,3-dioxoisoindolin-5-yl)amino)octyl)amino)−2-oxoethoxy)phenyl)propyl 1-((S)−2-(3,4,5-trimethoxyphenyl)butanoyl)piperidine-2-carboxylate]: in experiment [15], the “duration” value is given as “up to 72 hours” and the “time to efficient depletion” value was at most 4 h. Besides, the “growth in 9-day proliferation assay” value in [16] is “neither of the FKBP12^F36V-MELK(sg3R) MELK−/− clones exhibited growth impairment”.
